In the assay the test system is H9c2 cells. The assay can be described thus: Cell viability assay (MTT) of H9c2 cells in hypoxia-reoxygenation model. The following applies: added 1 hour before hypoxia, 6 h hypoxia, 12 h reoxygenation, compounds 1, 3, 10 μM, metformin 10, 30, 100 μM, compared to the sham group, FIG. 1(b). The class given is cell-based, rat. Here is the method: Cell Viability Assay of H9c2 Cell in Hypoxia-Reoxygenation Model
Rat embryonic ventricular myoblast cell line, H9c2, are cultured in a DMEM medium supplemented with 10% fetal bovine serum (FBS), penicillin (10 U/mL), streptomycin (100 μg/mL) and amphotericin B (0.25 μg/mL) in 37° C. humidified 5% carbon dioxide (CO2) incubator. When the plate becomes confluent, maintain the culture at a 1:4 subculture split.
(1) H9c2 cells are cultured on a 60 mm plate (6×10^5 cells/plate) containing 10% FBS DMEM (high glucose DMEM) for 24 hours. The medium is replaced with DMEM with no serum for the starvation. At the same time, a medium containing DMEM with no glucose and no serum is adjusted to pH 6.8 and placed into a hypoxia chamber (95% N2 and 5% CO2, 37° C.) where the oxygen partial pressure is controlled to be less than 2% for a pretreatment for 24 hours. […]
Please refer to FIGS. 1(a) and 1(b), which are diagrams showing the effects of the compounds in the present invention and metformin on the viability of cells treated by the hypoxia-reoxygenation. The results are represented by the absorbance (OD) values of the hypoxia-reoxygenation treated group (IR OD)/the OD values of the control group (control OD) in FIG. 1(a) and the OD values of the drug-treated group (drug OD)/the OD values of the sham group (sham OD).

For the compound `CN(C)C(=N)N=C(N)N` [metformin], the “viability of the cells treated with the hypoxia-reoxygenation (drug OD/sham OD)” value is given as “significantly increased”.

As to `COc1cc(/C=C/C(=O)OCC2OC(Oc3ccc(C[C@H]4CO[C@H](c5ccc(O)c(OC)c5)[C@H]4CO)cc3OC)C(O)C(O)C2O)ccc1O` (stereo partly drawn) [RS-47, lariciresinol 4′-(6″-O-feruloyl-β-D-glucopyranoside)], the “viability of the cells treated with the hypoxia-reoxygenation (drug OD/sham OD)” value was “significantly increased”.
